# Source: ChEMBL document CHEMBL1132872, “Synthesis of a potent aminocyclitol alpha-mannosidase inhibitor, 1L-(1,2,3,5/4)-5-amino-4-O-methyl-1,2,3,4-cyclopentanetetrol” (Bioorg Med Chem Lett, 2000)
# How the values were obtained:
# Set-up in all cases: species or system Canavalia ensiformis
# [1] = Inhibitory activity against Alpha-mannosidase (Jack bean)
# [2] = Inhibitory activity against Alpha-mannosidase (Jack bean); No inhibition
# [3] = Compound (at <10 e -3M) was tested for inhibition of Alpha-mannosidase (jack bean); No inhibition
SMILES,IC50 [1] [µM],also measured
N[C@@H]1C[C@H](O)[C@H](O)[C@@H]1O,11,–
N[C@H]1[C@@H](O)[C@@H](O)[C@@H](O)[C@@H]1S,36,–
CO[C@@H]1[C@@H](N)[C@@H](O)[C@@H](O)[C@H]1O,0.16,–
CO[C@@H]1[C@@H](N)[C@@H](OC)[C@@H](O)[C@H]1O,–,IC50 [2]: Not Active
CCS[C@@H]1[C@@H](N)[C@@H](O)[C@@H](O)[C@H]1O,5,–
CO[C@H]1[C@@H](N)[C@@H](O)[C@@H](O)[C@H]1O,–,IC50 [3]: Not Active
CS[C@@H]1[C@@H](N)[C@@H](O)[C@@H](O)[C@H]1O [MANNOSTATIN A],0.35,–
